Each molecule was assayed against T1, human Nav1.7 (Homo sapiens, UniProt Q15858) (assay: IonWorks Quattro automated patch-clamp, inactivated state block of Nav1.7). Conditions: not given.
T1 construct: expressed in transfected cells; host or cells: HEK 293
Format: cell-based
Protocol: Compounds were tested on human Nav1.7 and Nav1.5 channels stably expressed in HEK 293 cells. […] Cells were sealed on a planar substrate using the Population Patch […] (PPC) technology. Electrical access was obtained using both nystatin and amphotericin. A double-pulse protocol was used for the determination of IC50 values for inactivated state block. Nav1.7 and Nav1.5 expressing cells were voltage clamped at −100 mV and −110 mV, respectively. A depolarizing prepulse to −10 mV (Nav1.7) or −30 mV (Nav1.5) for 1000 ms followed by a 10 ms repolarization to −100 mV (Nav1.7) or −110 mV (Nav1.5) was given to generate fractional channel inactivation of 50%, followed by a 10 ms test pulse to −10 mV (Nav1.7) or −30 mV (Nav1.5) to measure peak current in control conditions and after compound addition. The following recording solutions were used (mM). External: 150 NaCl, 2 CaCl2, 5 KCl, 1 Mg Cl2, 10 HEPES, 12 Dextrose; internal: 120 CsF, 30 CsCl, 10 EGTA, 5 HEPES, 5 NaF, 2 MgCl2.
For all electrophysiology experiments, offline analysis was used to determine percent inhibition as a function of drug concentration. IC50 values were determined by fitting to the Hill equation.

T1 sequence (Q15858 whole entry): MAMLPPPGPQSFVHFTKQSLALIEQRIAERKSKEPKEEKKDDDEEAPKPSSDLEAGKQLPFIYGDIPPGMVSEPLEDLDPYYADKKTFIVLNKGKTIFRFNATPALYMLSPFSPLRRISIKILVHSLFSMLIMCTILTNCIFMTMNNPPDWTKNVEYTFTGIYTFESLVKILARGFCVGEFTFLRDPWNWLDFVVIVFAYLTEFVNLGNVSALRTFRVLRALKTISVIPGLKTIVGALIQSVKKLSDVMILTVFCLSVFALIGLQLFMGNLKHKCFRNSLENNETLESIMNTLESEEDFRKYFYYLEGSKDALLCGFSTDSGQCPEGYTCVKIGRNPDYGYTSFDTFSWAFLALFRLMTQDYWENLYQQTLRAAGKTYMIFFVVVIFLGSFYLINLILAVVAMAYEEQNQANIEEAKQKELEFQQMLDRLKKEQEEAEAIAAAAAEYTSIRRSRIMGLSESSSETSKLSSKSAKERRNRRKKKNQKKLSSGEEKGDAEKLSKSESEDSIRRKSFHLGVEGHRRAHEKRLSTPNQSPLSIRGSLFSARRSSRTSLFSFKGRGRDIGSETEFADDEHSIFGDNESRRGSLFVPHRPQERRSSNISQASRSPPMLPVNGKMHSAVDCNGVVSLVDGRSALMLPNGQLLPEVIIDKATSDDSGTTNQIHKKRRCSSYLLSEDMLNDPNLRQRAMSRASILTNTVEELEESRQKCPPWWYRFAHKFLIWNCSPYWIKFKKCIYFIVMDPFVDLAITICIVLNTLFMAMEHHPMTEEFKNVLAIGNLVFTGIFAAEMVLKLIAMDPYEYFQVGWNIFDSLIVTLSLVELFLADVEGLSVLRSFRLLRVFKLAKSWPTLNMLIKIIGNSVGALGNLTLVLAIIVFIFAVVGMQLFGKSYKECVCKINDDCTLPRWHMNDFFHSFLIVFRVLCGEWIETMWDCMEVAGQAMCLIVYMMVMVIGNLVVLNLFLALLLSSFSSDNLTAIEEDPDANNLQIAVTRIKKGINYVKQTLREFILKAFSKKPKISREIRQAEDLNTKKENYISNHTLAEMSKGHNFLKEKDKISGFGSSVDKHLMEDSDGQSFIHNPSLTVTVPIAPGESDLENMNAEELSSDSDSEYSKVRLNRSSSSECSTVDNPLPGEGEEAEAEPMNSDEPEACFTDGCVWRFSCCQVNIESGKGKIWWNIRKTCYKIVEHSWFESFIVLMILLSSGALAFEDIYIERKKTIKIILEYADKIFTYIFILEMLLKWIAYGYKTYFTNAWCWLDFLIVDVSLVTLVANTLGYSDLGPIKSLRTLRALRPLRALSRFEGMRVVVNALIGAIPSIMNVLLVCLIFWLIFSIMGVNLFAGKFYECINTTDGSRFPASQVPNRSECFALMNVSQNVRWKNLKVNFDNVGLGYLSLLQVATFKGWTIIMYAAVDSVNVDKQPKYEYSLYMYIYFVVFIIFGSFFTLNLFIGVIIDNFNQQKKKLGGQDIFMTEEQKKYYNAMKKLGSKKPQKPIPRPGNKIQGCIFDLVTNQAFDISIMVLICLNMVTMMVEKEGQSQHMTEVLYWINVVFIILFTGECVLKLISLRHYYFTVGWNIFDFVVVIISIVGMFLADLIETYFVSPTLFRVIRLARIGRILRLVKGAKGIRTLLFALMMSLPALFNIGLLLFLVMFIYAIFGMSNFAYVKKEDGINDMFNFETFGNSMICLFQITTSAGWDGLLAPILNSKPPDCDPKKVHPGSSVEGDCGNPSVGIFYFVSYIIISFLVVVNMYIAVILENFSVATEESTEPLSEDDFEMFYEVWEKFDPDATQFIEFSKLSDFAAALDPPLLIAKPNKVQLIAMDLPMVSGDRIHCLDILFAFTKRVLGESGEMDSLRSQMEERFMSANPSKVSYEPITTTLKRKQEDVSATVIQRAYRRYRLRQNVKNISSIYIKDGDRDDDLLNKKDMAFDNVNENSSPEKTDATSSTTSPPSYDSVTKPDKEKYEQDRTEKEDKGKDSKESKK

| SMILES | IC50 |
| --- | --- |
| CC(CCCNc1cc(F)c(S(=O)(=O)Nc2nccs2)cc1Cl)NC[C@@H]1CCCN1 (single isomer, unassigned) | 12 nM |

Same assay, conditions: channels stably expressed in HEK 293 cells; double-pulse protocol, inactivated state block; read-out: potency for the Nav 1.7 sodium ion channel (IC50, as measured by IonWorks)

| IC50 | SMILES |
| --- | --- |
| 10 nM | O=S(=O)(Nc1nccs1)c1cc(Cl)c(NCCCCNC[C@H]2CCCCN2)cc1F [Ex 1-05, 5-chloro-2-fluoro-4-[(4-{[(2R)-piperidin-2-ylmethyl]amino}butyl)amino]-N-1,3-thiazol-2-ylbenzenesulfonamide] |
| 15 nM | O=S(=O)(Nc1nccs1)c1cc(Cl)c(NCCCCNC[C@@H]2CCCN2)cc1F [Ex 1-06, 5-chloro-2-fluoro-4-[(4-{[(2S)-pyrrolidin-2-yl-methyl]amino}butyl)-amino]-N-1,3-thiazol-2-yl-benzenesulfonamide] |
| 28 nM | CC(C)(CN)NCCCCNc1cc(F)c(S(=O)(=O)Nc2nccs2)cc1Cl [Ex 1-10, 4-({4-[(2-amino-1,1-dimethylethyl)amino]-butyl}amino)-5-chloro-2-fluoro-N-1,3-thiazol-2-yl-benzenesulfonamide] |
| 29 nM | CN(CCN)CCCCNc1cc(F)c(S(=O)(=O)Nc2nccs2)cc1Cl [Ex 1-15, 4-({4-[(2-aminoethyl) (methyl)amino]butyl}amino)-5-chloro-2-fluoro-N-1,3-thiazol-2-ylbenzenesulfonamide] |
| 19 nM | N[C@H]1CCCC[C@H]1NCCCCNc1cc(F)c(S(=O)(=O)Nc2nccs2)cc1Cl [Ex 1-30, 4-[(4-{[(1R,2S)-2-aminocyclohexyl]amino}butyl)amino]-5-chloro-2-fluoro-N-1,3-thiazol-2-ylbenzenesulfonamide] |
| 34 nM | O=S(=O)(Nc1nccs1)c1cc(Cl)c(NCCCCNCC2CNC2)cc1F [Ex 5-03, 4-((4-((azetidin-3-ylmethyl)amino)butyl)amino)-5-chloro-2-fluoro-N-(thiazol-2-yl)benzenesulfonamide] |
| 12 nM | CNCCNCCCCNc1cc(F)c(S(=O)(=O)Nc2nccs2)cc1Cl [Ex 5-04] |
| 34 nM | O=S(=O)(Nc1nccs1)c1cc(Cl)c(NCCCCNC[C@H]2CCCN2)cc1F [Ex 7-6, (R)-5-chloro-2-fluoro-4-((4-((pyrrolidin-2-ylmethyl)amino)butyl)amino)-N-(thiazol-2-yl)benzenesulfonamide] |
| 10 nM | O=S(=O)(Nc1ncns1)c1cc(Cl)c(NCCCCNC[C@@H]2CCCN2)cc1F [Ex 7-8, 5-chloro-2-fluoro-4-[(4-{[(2S)-pyrrolidin-2-ylmethyl]amino}butyl)amino]-N-1,2,4-thiadiazol-5-ylbenzenesulfonamide] |
| 29 nM | O=S(=O)(Nc1ncc(Cl)s1)c1cc(Cl)c(NCCCCNC[C@@H]2CCCN2)cc1F [Ex 7-9, 5-chloro-N-(5-chloro-1,3-thiazol-2-yl)-2-fluoro-4-[(4-{[(2S)-pyrrolidin-2-ylmethyl]amino}butyl)amino]benzenesulfonamide] |
| 16 nM | O=S(=O)(Nc1nccs1)c1cc(Br)c(NCCCCNC[C@@H]2CCCN2)cc1F [Ex 7-10, 5-bromo-2-fluoro-4-[(4-{[(2S)-pyrrolidin-2-ylmethyl]amino}butyl)amino]-N-1,3-thiazol-2-ylbenzenesulfonamide] |
| 9.9 nM | O=S(=O)(Nc1ncc(F)s1)c1cc(Cl)c(NCCCCNC[C@@H]2CCCN2)cc1F [Ex 7-11, 5-chloro-2-fluoro-N-(5-fluoro-1,3-thiazol-2-yl)-4-[(4-{[(2S)-pyrrolidin-2-ylmethyl]amino}butyl)amino]benzenesulfonamide] |
| 18 nM | C[C@@H]1CN[C@H](CNCCCCNc2cc(F)c(S(=O)(=O)Nc3nccs3)cc2Cl)C1 [Ex 8-09, 5-chloro-2-fluoro-4-{[4-({[(2S,4S)-4-methylpyrrolidin-2-yl]-methyl}amino)butyl]amino}-N-1,3-thiazol-2-yl-benzenesulfonamide] |
| 16 nM | C[C@H]1CC[C@@H](CNCCCCNc2cc(F)c(S(=O)(=O)Nc3nccs3)cc2Cl)N1 [Ex 8-10, 5-chloro-2-fluoro-4-{[4-({[(2S,5S)-5-methylpyrrolidin-2-yl]-methyl}amino)butyl]amino}-N-1,3-thiazol-2-yl-benzenesulfonamide] |
| 21 nM | O=S(=O)(Nc1nccs1)c1cc(Cl)c(NCCCCNC[C@@H]2C[C@H](C(F)(F)F)CN2)cc1F [Ex 8-12, 5-chloro-2-fluoro-N-1,3-thiazol-2-yl-4-{[4-({[(2S,4S)-4-(trifluoromethyl)-pyrrolidin-2-yl]methyl}amino)butyl]amino}benzenesulfonamide] |
| 14 nM | O=S(=O)(Nc1ncns1)c1cc(Cl)c(NCCCCNC[C@H]2CCN2)cc1F [Ex 13-02, 4-[(4-{[(2R)-azetidin-2-yl-methyl]-amino}butyl)amino]-5-chloro-2-fluoro-N-1,2,4-thiadiazol-5-yl-benzene-sulfonamide] |

| IC50 | SMILES |
| --- | --- |
| 14 nM | O=S(=O)(Nc1ncns1)c1cc(Cl)c(NCCCCNC[C@@H]2CCN2)cc1F [Ex 14-04, 4-[(4-{[(2S)-azetidin-2-yl-methyl]-amino}butyl)amino]-5-chloro-2-fluoro-N-1,2,4-thiadiazol-5-ylbenzene-sulfonamide] |
| 12 nM | C[C@H](N)CNCCCCNc1cc(F)c(S(=O)(=O)Nc2ncns2)cc1Cl [Ex 15-05, 4-[(4-{[(2S)-2-aminopropyl]amino}butyl)amino]-5-chloro-2-fluoro-N-1,2,4-thiadiazol-5-ylbenzenesulfonamide] |
| 15 nM | O=S(=O)(Nc1ncns1)c1cc(Cl)c(NCCCCNC2CNC2)cc1F [Ex 16-01, 4-{[4-(azetidin-3-ylamino)-butyl]-amino}-5-chloro-2-fluoro-N-1,2,4-thiadiazol-5-ylbenzenesulfonamide] |
| 11 nM | O=S(=O)(Nc1ncc(F)s1)c1cc(Br)c(NCCCCNC[C@H]2CCCCN2)cc1F [Ex 16-04, 5-bromo-2-fluoro-N-(5-fluoro-1,3-thiazol-2-yl)-4-[(4-{[(2R)-piperidin-2-ylmethyl]amino}-butyl]amino]benzene-sulfonamide] |
| 15 nM | C[C@H](CN)NCCCCNc1cc(F)c(S(=O)(=O)Nc2nccs2)cc1Cl [Ex 16-08, 4-[(4-{[(1R)-2-amino-1-methylethyl]-amino}butyl)-amino]-5-chloro-2-fluoro-N-1,3-thiazol-2-ylbenzenesulfonamide] |
| 5.1 nM | O=S(=O)(Nc1ncns1)c1cc(Cl)c(NCCCCNC[C@H]2CCCCN2)cc1F [Ex 16-15, 5-chloro-2-fluoro-4-[(4-{[(2R)-piperidin-2-yl-methyl]amino}butyl)-amino]-N-1,2,4-thiadiazol-5-yl-benzenesulfonamide] |
| 18 nM | O=S(=O)(Nc1ncc(F)s1)c1cc(Cl)c(NCCCCNCC[C@H]2CCCN2)cc1F [Ex 16-18, 5-chloro-2-fluoro-N-(5-fluoro-1,3-thiazol-2-yl)-4-{[4-({2-[(2R)-pyrrolidin-2yl]-ethyl}amino)butyl]-amino} benzenesulfonamide] |
| 11 nM | O=S(=O)(Nc1ncns1)c1cc(Cl)c(NCCCCN[C@@H]2CCNC2)cc1F [Ex 16-19, 5-chloro-2-fluoro-4-({4-[(3R)-pyrrolidin-3-ylamino]-butyl}amino)-N-1,2,4-thiadiazol-5-ylbenzene-sulfonamide] |
| 28 nM | C[C@H](CCN)NCCCCNc1cc(F)c(S(=O)(=O)Nc2nccs2)cc1Cl [Ex 16-26, 4-[(4-{[(1R)-3-amino-1-methylpropyl]amino}butyl)amino]-5-chloro-2-fluoro-N-1,3-thiazol-2-ylbenzene-sulfonamide] |
| 56 nM | C[C@H](CCN)NCCCCNc1cc(F)c(S(=O)(=O)Nc2ncns2)cc1Cl [Ex 16-29, 4-[(4-{[(1R)-3-amino-1-methylpropyl]amino}butyl)-amino]-5-chloro-2-fluoro-N-1,2,4-thiadiazol-5-yl-benzenesulfonamide] |
| 12 nM | NCCNCCCCNc1cc(F)c(S(=O)(=O)Nc2ncns2)cc1Cl [Ex 16-33, 4-({4-[(2-aminoethyl)-amino]butyl}amino)-5-chloro-2-fluoro-N-1,2,4-thiadiazol-5-ylbenzene-sulfonamide] |
| 29 nM | C[C@@H](N)CCNCCCCNc1cc(F)c(S(=O)(=O)Nc2nccs2)cc1Cl [Ex 16-34, 4-[(4-{[(3R)-3-aminobutyl]-amino}butyl)amino]-5-chloro-2-fluoro-N-1,3-thiazol-2-ylbenzene-sulfonamide] |
| 14 nM | NCCCNCCCCNc1cc(F)c(S(=O)(=O)Nc2ncc(F)s2)cc1Cl [Ex 16-35, 4-({4[(3-aminopropyl)amino]-butyl}amino)-5-chloro-2-fluoro-N-(5-fluoro-1,3-thiazol-2-yl)benzene-sulfonamide] |
| 15 nM | O=S(=O)(Nc1ncc(F)s1)c1cc(Br)c(NCCCCN[C@@H]2CCNC2)cc1F [Ex 16-36, 5-bromo-2-fluoro-N-(5-fluoro-1,3-thiazol-2-yl)-4-({4-[(3R)-pyrrolidin-3-yl-amino]butyl}amino) benzene-sulfonamide] |
| 19 nM | O=S(=O)(Nc1nccs1)c1cc(Br)c(NCCCCN[C@@H]2CCNC2)cc1F [Ex 16-37, 5-bromo-2-fluoro-4-({4-[(3R)-pyrrolidin-3-ylamino]-butyl}amino)-N-1,3-thiazol-2-ylbenzenesulfonamide] |
| 14 nM | O=S(=O)(Nc1nccs1)c1cc(Cl)c(NCCCCN[C@H]2CCCCNC2)cc1F [Ex 16-41, (S)-4-{[4-(azepan-3-ylamino)-butyl]amino}-5-chloro-2-fluoro-N-1,3-thiazol-2-yl-benzenesulfonamide] |

| SMILES | IC50 |
| --- | --- |
| CC(CCCNc1cc(F)c(S(=O)(=O)Nc2nccs2)cc1Cl)NC[C@@H]1CCCN1 (mixture of isomers) | 11 nM |

— patent publication US10519147B2 (Merck Sharp & Dohme Corp., priority 2015, dated 2019)
